The subject of assay [1] is embryonic stages of S. digitata. Briefly: Presence of cytochrome-c in the cytoplasm, anti cytochrome c-FITC staining. The class given is cell-based, Setaria digitata. The settings on record: 24 hr. How it is done:
Adult female filarial worms Setaria digitata were collected from the peritoneum of cattle, slaughtered at a nearby abattoir in sterile Hanks Balanced Salt Solution (HBSS) medium (Sigma H 2387-1L) and transported to the laboratory in a sterile container. The medium containing 1% glucose (Sigma G 7528), Penicillin 100 units/ml, Streptomycin 100 μg/ml (Sigma P 4333). And Amphotericin-B 0.25 μg/ml (Sigma A 2942) was buffered with NaHCO3 (Sigma S 5761). About 5 to 7 worms were taken in a petridish, washed three times in medium, dissected into small pieces in 10 ml of medium under sterile conditions and incubated at 37° C. for 30 minutes to allow the release of embryonic stages (eggs and microfilariae) into the medium. The embryonic stages were harvested into sterile 15 ml. centrifuge tubes and washed three times by centrifuging at 300 g for 10 minutes each with medium and the final pellet was suspended in 1 ml. of RPMI-1640 medium (Sigma R 8005) supplemented with 10% FBS (Sigma F 2442) The number of embryonic stages of S. digitata in the above preparation were counted using light microscope, and the suspension was taken in RPMI-1640 medium containing 10% FBS at 1×10^5 embryonic stages/ml. One ml. each was dispensed into individual wells of a 24 well tissue culture plate. One set of wells was taken as untreated control containing only medium with 10% FBS. […] Motility of the Mf was scored under an inverted microscope. After appropriate treatment and incubation, each set of the cultured embryonic stages of S. digitata were harvested from the 24 well tissue culture plate separately in 15 ml. sterile centrifuge tubes, washed with PBS twice and stained as per requirement following manufacturer's instructions as described below. This was followed by two times washing with PBS and final suspension of the stained embryonic stages was taken in 0.5 ml of sheath fluid (BD Biosciences 342003) before their acquisition in the flow cytometer (BD FACS Calibur, Becten and Dickinson, USA). Analysis was performed on 10,000-acquired events depicted as Dot Plots and Histogram Plots using Cellquest Pro soft ware. All plots were representative of at least 3 experiments. […] After in vitro culture for 24 hours with apoptosis inducing reagents the embryonic stages were harvested in 15 ml. sterile centrifuge tubes and fixed for 60 minutes at 0° C. in 1% paraformaldehyde (Sigma P 6148) in PBS. The suspension was washed first with PBS and then with 1× permeabilisation buffer (eBioscience 00-8333-56) and finally resuspended in 100 μl of 1× permeabilisation buffer at 1×10^5 embryonic stages per ml. This suspension was then incubated for 45 minutes with 20 μl of anti cytochrome c-FITC (eBioscience 11-6601-82). This was followed by washing with PBS twice and analysis by Flow cytometer.

Assay [2] has the same test system. The assay is described as follows: Intra cellular expression of CED-3 protein, flow cytometry. The settings on record: 24 hr. The class given is cell-based, Setaria digitata. How it is done: Adult female filarial worms Setaria digitata were collected from the peritoneum of cattle, slaughtered at a nearby abattoir in sterile Hanks Balanced Salt Solution (HBSS) medium (Sigma H 2387-1L) and transported to the laboratory in a sterile container. The medium containing 1% glucose (Sigma G 7528), Penicillin 100 units/ml, Streptomycin 100 μg/ml (Sigma P 4333). And Amphotericin-B 0.25 μg/ml (Sigma A 2942) was buffered with NaHCO3 (Sigma S 5761). About 5 to 7 worms were taken in a petridish, washed three times in medium, dissected into small pieces in 10 ml of medium under sterile conditions and incubated at 37° C. for 30 minutes to allow the release of embryonic stages (eggs and microfilariae) into the medium. The embryonic stages were harvested into sterile 15 ml. centrifuge tubes and washed three times by centrifuging at 300 g for 10 minutes each with medium and the final pellet was suspended in 1 ml. of RPMI-1640 medium (Sigma R 8005) supplemented with 10% FBS (Sigma F 2442) The number of embryonic stages of S. digitata in the above preparation were counted using light microscope, and the suspension was taken in RPMI-1640 medium containing 10% FBS at 1×10^5 embryonic stages/ml. One ml. each was dispensed into individual wells of a 24 well tissue culture plate. One set of wells was taken as untreated control containing only medium with 10% FBS. […] Motility of the Mf was scored under an inverted microscope. After appropriate treatment and incubation, each set of the cultured embryonic stages of S. digitata were harvested from the 24 well tissue culture plate separately in 15 ml. sterile centrifuge tubes, washed with PBS twice and stained as per requirement following manufacturer's instructions as described below. This was followed by two times washing with PBS and final suspension of the stained embryonic stages was taken in 0.5 ml of sheath fluid (BD Biosciences 342003) before their acquisition in the flow cytometer (BD FACS Calibur, Becten and Dickinson, USA). Analysis was performed on 10,000-acquired events depicted as Dot Plots and Histogram Plots using Cellquest Pro soft ware. All plots were representative of at least 3 experiments. The distinctly clustered populations obtained consistently in the Dot plots for the intra uterine embryonic stages of S. digitata (FIG. 1 a) were gated for Mfs (R-1) and eggs (R-2 and R-3) and analyzed for different assays for apoptosis as described below. After in vitro culture for 24 hours with apoptosis inducing reagents the embryonic stages were harvested in 15 ml, sterile centrifuge tubes and fixed for 60 minutes at 0° C. in 1% paraformaldehyde (Sigma P 6148) in PBS. The suspension was washed first with PBS and then with 1× permeabilisation buffer (eBioscience 00-8333-56) and finally resuspended in 100 μl of 1× permeabilisation buffer at 1×10^5 embryonic stages per ml. The intra cellular expression of CED-3 was scored by incubation of the fixed and permeabilised embryonic stages with primary goat antibodies—anti CED-3 (Santacruz sc-9192) followed by Probing with PE conjugated secondary anti goat IgG-PE (Santacruz sc-3747) antibodies. Incubation of both primary and secondary antibodies (both 1/100 diluted) was done successively in 1× permeabilisation buffer (e Bioscience 00-8333-56) for 1 hr and 45 minutes respectively. The suspension of stained embryonic stages was then washed with PBS twice and finally reading was taken by flow cytometry.

“And” between values parts separate entries of the source, which are not always exact repeats. Identical values can stand only once.

For `OO` [H2O2], the “GMI (Geometric Mean Intensity) of Fluorescence, Cyt-c Staining” value (from here on “GMI … Cyt-c Staining”) in assay [1] (Eggs, 10 μM) was 62.37 and 67.72 and 65.39; in assay [1] (Microfilariae, 10 μM) it was 7.53 and 9.23 and 8.14. In addition, the “GMI (Geometric Mean Intensity) of Fluorescence, CED-3 Expression” value (“GMI … CED-3 Expression” for short) in assay [2] (Eggs, 10 μM) was 98.25 and 100.22 and 97.56; in assay [2] (Microfilariae, 10 μM), 10.99 and 12.38 and 9.95.

Take `CN[C@@H]1C[C@H]2O[C@@](C)([C@@H]1OC)n1c3ccccc3c3c4c(c5c6ccccc6n2c5c31)C(=O)NC4` [Staurosporine]: the “GMI … Cyt-c Staining” value in assay [1] (Eggs, 1 μM) is 54.33 and 61.66 and 57.27; in assay [1] (Microfilariae, 1 μM) it was 6.02 and 4.20. Besides, the “GMI … CED-3 Expression” value is 92.71 and 96.07 and 90.32 in assay [2] (Eggs, 1 μM); 8.33 and 8.10 and 7.39 in assay [2] (Microfilariae, 1 μM).

`CC1=CC(=O)c2c(O)cccc2C1=O` [Plumbagin]: the “GMI … Cyt-c Staining” value is 70.29 and 76.25 and 71.32 in assay [1] (Eggs, 10 μM); 18.69 and 20.32 and 17.56 in assay [1] (Microfilariae, 10 μM). For the same compound, the “GMI … CED-3 Expression” value was 205.26 and 207.37 and 200.17 in assay [2] (Eggs, 10 μM); 32.75 and 34.96 and 31.33 in assay [2] (Microfilariae, 10 μM).

(Values after US20110124523A1, “High Throughput Method for Detecting Apoptosis of Embryonic Stages of Metazoan Helminthic Parasites” (INSTITUTE OF LIFE SCIENCES, priority 2009, published 2011).)
